Laboratory results taken from BindingDB's records for doi:10.1016/j.bmc.2015.01.060 (University of Florida, 2015).

What was measured:
[1] = molecular target: T1, 5-hydroxytryptamine receptor 2C (Homo sapiens, UniProt P28335); assay: Displacement of [3H]Mesulergine from human 5-HT2C-INI receptor expressed in HEK293 cells by scintillation counting analysis
T1 sequence (P28335 whole entry): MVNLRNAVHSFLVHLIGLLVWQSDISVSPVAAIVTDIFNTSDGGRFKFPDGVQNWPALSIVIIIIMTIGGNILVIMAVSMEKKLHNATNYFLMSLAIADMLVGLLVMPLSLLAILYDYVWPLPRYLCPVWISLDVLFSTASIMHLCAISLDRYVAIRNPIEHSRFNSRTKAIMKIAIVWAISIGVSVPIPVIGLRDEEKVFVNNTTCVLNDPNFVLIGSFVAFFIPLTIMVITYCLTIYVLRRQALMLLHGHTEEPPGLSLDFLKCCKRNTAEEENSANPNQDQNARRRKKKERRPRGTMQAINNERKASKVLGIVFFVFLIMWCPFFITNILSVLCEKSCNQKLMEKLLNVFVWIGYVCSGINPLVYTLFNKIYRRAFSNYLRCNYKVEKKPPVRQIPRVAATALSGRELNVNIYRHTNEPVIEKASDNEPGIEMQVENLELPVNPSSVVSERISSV

[2] = molecular target: 5-hydroxytryptamine receptor 2B (Homo sapiens, UniProt P41595); assay: Displacement of [3H]Mesulergine from human 5-HT2B receptor expressed in HEK293 cells by scintillation counting analysis
Sequence of 5-hydroxytryptamine receptor 2B (P41595 whole entry): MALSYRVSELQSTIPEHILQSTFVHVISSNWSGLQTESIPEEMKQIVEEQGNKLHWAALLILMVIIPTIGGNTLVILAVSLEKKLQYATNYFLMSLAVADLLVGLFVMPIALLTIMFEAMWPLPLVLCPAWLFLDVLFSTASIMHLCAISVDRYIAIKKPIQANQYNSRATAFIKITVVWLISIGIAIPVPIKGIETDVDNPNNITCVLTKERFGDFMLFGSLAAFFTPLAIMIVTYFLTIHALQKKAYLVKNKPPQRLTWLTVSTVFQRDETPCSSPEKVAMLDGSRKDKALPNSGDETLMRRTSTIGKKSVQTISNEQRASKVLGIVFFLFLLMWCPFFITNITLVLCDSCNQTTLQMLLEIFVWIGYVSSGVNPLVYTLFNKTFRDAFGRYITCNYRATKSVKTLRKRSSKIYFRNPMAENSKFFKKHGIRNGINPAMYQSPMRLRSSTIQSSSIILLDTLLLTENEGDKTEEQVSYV

- Ki [1]: 1000 nM
- Ki [2]: 4100 nM
Structure (SMILES): CN(C)[C@H]1Cc2ccccc2[C@H](c2ccc([N+](=O)[O-])cc2)C1
